Our source for the solubility values is patent US8575147B2, “Spontaneously dispersible N-benzoyl staurosporine compositions” (Novartis AG, priority 1999, dated 2013).

This data set can be described thus: Solubility of N-benzoyl-staurosporine in water, simulated gastric and intestinal fluids. It counts as physicochemical. The procedure:
U.S. Pat. No. 5,093,330 specifically discloses two tablet formulations based on starch/lactose mixtures in the presence of colloidal silica, talc and magnesium stearate (Examples 52 and 53) and a capsule formulation based on talc and colloidal silica (Example 54). […] We have found it to be very lipophilic and practically insoluble in water, in simulated gastric and in intestinal fluids (solubility<0.1 mg/L). In particular this exceptional low solubility of the active substance necessitated development of a non-conventional dosage form.

`CO[C@@H]1[C@H](N(C)C(=O)c2ccccc2)C[C@H]2O[C@]1(C)n1c3ccccc3c3c4c(c5c6ccccc6n2c5c31)C(=O)NC4` [N-benzoyl-staurosporine] gave a solubility of less than 0.1 µg/mL.
